Assay results: PubChem BioAssay AID2060498 (Molecular Pharmacology Branch, DTP, NCI, 2025)
Where “and” joins values, the source holds several entries; their conditions need not be identical. Equal values may be shown once.

System: 171881-019-R-J1-PDC tumor spheroids, viability
Test: Anticancer human tumor 171881-019-R-J1-PDC patient-derived invasive breast carcinoma cell line growth inhibition [GQUAD]
Settings: spheroids with HUVEC and MSC; for viability, T/C: stronger effect = lower value
Source text: DNA G-quadruplex Stabilizer Agents in Combinations in Complex Spheroids
A high-throughput screen of multi-cell type tumor spheroids was designed to identify active combinations of DNA G-quadruplex stabilizer agents and targeted small molecules. Complex spheroids include a stromal component modeled by human endothelial cells (HUVEC) and fibroblasts modeled by human mesenchymal stem cells (MSCs). The concentration ranges selected for each drug and investigational agent were based upon clinically achievable concentrations if the clinical Cmax of the agent was known.
Compounds. The drugs and investigational agents: pidnarulex (CX-5461; NSC782164), APTO-253 (NSC789042), BRACO-19 (NSC847499), peposertib (NSC802822), ceralasertib (NSC780249), elimusertib (NSC800525), camonsertib (NSC841442), AZD-1390 (NSC803789), olaparib (NSC753686), talazoparib (NSC767125), ART-558 (NSC835418), sotorasib (NSC818433), MRTX-1133 (NSC836407), SN-38 (NSC673596), topotecan (NSC609699), etoposide (NSC141540), doxorubicin (NSC123127), gemcitabine (NSC613327), 5-fluorouracil (NSC19893), paclitaxel (NSC125973), vemurafenib (NSC761431), panobinostat (NSC761190), R-306465 (JNJ-16241199; NSC773264), adavosertib (NSC754352), TP-3654 (NSC805149), carboplatin (NSC241240), KSQ-4279 (NSC840948), and staurosporine (NSC755774) were obtained from the National Cancer Institute (NCI) Developmental Therapeutics Program Chemical Repository (34). The FDA-approved anticancer drug set is available from the NCI Developmental Therapeutics Program. […] The stock solutions were prepared in dimethyl sulfoxide (DMSO, Sigma-Aldrich, St. Louis, MO, cat. D2650) at 800-fold the tested concentration and stored at -70 degrees C prior to their use. All drugs and investigational agents were tested over a range starting from a high concentration at or near the clinical Cmax and decreasing in half-log increments. If the clinical Cmax for an agent had not been determined, the highest concentration tested was 10 microM.
2.3 Cell Culture. All cells were maintained in an incubator at 37 degrees C and 5% CO2 with 95% humidity. The PDC lines were cultured according to standard operating procedures established by the NCI PDMR. All PDCs were thawed and cultured in Matrigel-coated flasks prepared with a working solution of 1X Ham's F-12 nutrient mix, without supplementation (Invitrogen, cat. 11765054), 100 U/mL penicillin-streptomycin (Invitrogen, cat. 15140122), and 2.5% Matrigel (Corning Inc., cat. 354248) for the first three passages. The 857933-349-R-J2-PDC line was cultured in 6C/Colon 1B media, which includes advanced DMEM/F-12 (Thermo Fisher Scientific, cat. 12634028), 10 mM HEPES (Thermo Fisher Scientific, cat. 15630080), 1X GlutaMAX supplement (Thermo Fisher Scientific, cat. 35050061), 0.1 mg/mL primocin (InvivoGen, cat. ant-pm-2), 10% defined fetal bovine serum, heat inactivated (HyClone Laboratories Inc., cat. SH30070.03HI), 50% L-WRN conditioned media (ATCC, cat. CRL-3276), 1.25 mM N-Acetyl-L-cysteine (Sigma-Aldrich, cat. A9165), 10 mM nicotinamide (Sigma-Aldrich, cat. N0636), 1X B-27 supplement (Thermo Fisher Scientific, cat. 17504044), 1X N-2 supplement (Thermo Fisher Scientific, cat. 17502048), 10 microM Y-27632 dihydrochloride (Tocris Bioscience, cat. 1254), and 50 ng/mL human EGF recombinant protein (Thermo Fisher Scientific, cat. PHG0311). The 485176-168-R4-J1-PDC line was cultured in Panc media, which includes all 6C/Colon 1B media components plus 100 ng/mL human FGF-10 (Thermo Fisher Scientific, cat. 100-26), 500 nM SB-431542 (Selleckchem, cat. S1067), and gastrin (Tocris, cat. 3006).
[…]

[1] = compound alone, run of 02/26/2024
[2] = compound alone, run of 02/20/2024
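Also: spheroids exposed to compounds for 7 days.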
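For viability, T/C in this document: 100% = DMSO vehicle control viability.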

Row | IC50 (curve of compound) | IC50 [1] | IC50 [2] | Compound | viability, T/C (compound 0.0316 µM) | viability, T/C (compound 0.1 µM) | viability, T/C (compound 0.316 µM) | viability, T/C (compound 1 µM) | viability, T/C (compound 3.16 µM) | viability, T/C (compound 10 µM) | viability, T/C (compound 0.000999 µM) | viability, T/C (compound 0.00316 µM) | viability, T/C (compound 0.00999 µM) | viability, T/C (compound 0.0999 µM)
1 | > 10000 nM | – | – | C=CC(=O)N1CCN(c2nc(=O)n(-c3c(C)ccnc3C(C)C)c3nc(-c4c(O)cccc4F)c(F)cc23)C(C)C1 (centres undefined) | 85.8% and 97% and 88.1% | 94.8% and 102% and 105% | 101% (2×) and 104% | 104% (2×) and 108% | 96.7% and 93.7% and 96.9% | 51.8% and 53.1% and 55.6% | – | – | – | –
2 | 3590 nM and 2350 nM and 3270 nM | – | – | CC(C)n1c(=O)n(C)c2cnc3cc(F)c(-c4ccc(OCCCN5CCCCC5)nc4)cc3c21 | 93.2% and 98.1% and 85.8% | 95.7% and 88.2% and 81.6% | 96.2% and 94.4% and 102% | 74.8% and 82.3% and 78.2% | 55.2% and 38.8% and 51.6% | 20.5% and 11.7% and 18.7% | – | – | – | –
3 | 57.4 nM and 61 nM and 62 nM | – | – | CC1COCCN1c1cc(-c2ccnn2C)c2ccnc(-c3ccn[nH]3)c2n1 (centres undefined) | 65.6% and 74.5% and 75.8% | 35.5% and 31.4% and 31.2% | 15.8% and 12.9% and 15.2% | 8.71% and 4.99% and 7.86% | 5% and 2.03% | 4.63% and 1.67% and 5.37% | – | – | – | –
4 | 33.8 nM and 37.4 nM and 37.3 nM | – | – | CC1COCCN1c1cc(C2(O)CC3CCC(C2)O3)c2cnn(-c3ccn[nH]3)c2n1 (centres undefined) | 52.1% and 55.1% and 56% | 21.3% and 20.7% and 15.9% | 9.11% and 9.51% and 6.18% | 6.21% and 5.84% and 2.3% | 4.07% and 4.22% and 1.52% | 3.07% and 3.7% and 0.82% | – | – | – | –
5 | 1290 nM and 1270 nM and 1170 nM | – | – | CC1COCCN1c1cc(C2(S(C)(=N)=O)CC2)nc(-c2ccnc3[nH]ccc23)n1 (centres undefined) | 106% and 98.7% and 79.5% | 97.3% and 97.8% and 89.9% | 93.4% and 89.1% and 82.5% | 59.2% and 58.9% and 55.1% | 18.7% and 17.7% and 17% | 9.35% and 7.04% and 9.31% | – | – | – | –
6 | 95 nM and 266 nM and 83.1 nM | – | – | CC[C@@]1(O)C(=O)OCc2c1cc1n(c2=O)Cc2cc3c(CN(C)C)c(O)ccc3nc2-1 | 88.4% and 94.7% and 87.2% | – | 35.1% (2×) and 48.3% | – | – | – | 84.9% and 109% and 105% | 89.6% and 94.4% and 100% | 96.2% and 103% and 85.5% | 48.2% and 59.4% and 42.4%
7 | 2.46 nM and 8.66 nM and 2.44 nM | – | – | CCc1c2c(nc3ccc(O)cc13)-c1cc3c(c(=O)n1C2)COC(=O)[C@]3(O)CC | 32% and 42.5% and 33.4% | – | 23.4% and 26.1% and 21.4% | – | – | – | 77.2% and 89.1% and 77.4% | 38.9% and 53.4% and 39.7% | 37.3% and 53.9% and 33% | 27.4% and 34.3% and 26%
8 | – | 548 nM [middle of 12 runs] | – | CN(C)c1ccc(Nc2c3ccc(NC(=O)CCN4CCCC4)cc3nc3cc(NC(=O)CCN4CCCC4)ccc23)cc1 | 97.6% [middle of 12 runs] | 99.5% [middle of 12 runs] | – | 20% [middle of 12 runs] | 1.98% [middle of 11 runs] | 0.43% [middle of 12 runs] | – | – | – | –
9 | 956 nM and 784 nM and 5260 nM | – | – | COc1cc(C2c3cc4c(cc3C(OC3OC5COC(C)OC5C(O)C3O)C3COC(=O)C23)OCO4)cc(OC)c1O (centres undefined) | 96.6% and 95.8% and 105% | 89.9% and 93.5% and 94.8% | 74.2% and 73.8% and 92.6% | 47.9% and 42.6% and 70.5% | 32.8% and 30.4% and 55.1% | 23.5% and 21.9% and 44.2% | – | – | – | –
10 | 838 nM and 629 nM and 684 nM | – | – | COc1ccc([C@@H](O)c2cc(-c3ncnc4cc(N5CCOCC5)ccc34)c(F)cc2Cl)nn1 | 82.4% and 94.3% and 101% | 85.4% and 83% and 76.8% | 72.4% and 72.6% and 69.2% | 46.7% and 35.9% and 46.9% | 13.4% and 7.19% and 13.3% | 5.21% and 1.35% and 5.78% | – | – | – | –
11 | – | 1.65 µM [middle of 4 runs] | 2.63 µM [middle of 8 runs] | Cc1[nH]c2ccc(F)cc2c1-c1nc2c3cccnc3c3ncccc3c2[nH]1 | 101% [middle of 12 runs] | 103% [middle of 12 runs] | – | – | – | 54.6% [middle of 12 runs] | – | – | – | –
12 | 58.7 nM and 59.5 nM and 58.2 nM | – | – | Cc1[nH]c2ccccc2c1CCNCc1ccc(/C=C/C(=O)NO)cc1 | 83.3% and 83.6% and 75.6% | – | 0.4% and 0.47% and 1.04% | – | – | – | 93.1% and 97% and 99.3% | 90.7% and 88% and 95.2% | 91.3% and 87.6% and 84.2% | 21.4% and 22.6% and 29%
13 | > 10000 nM | – | – | Cc1cccc(N(C)C(=O)C2C(O)CCN2c2nc(C)cc(C(F)(F)F)c2C#N)c1 (centres undefined) | 90.3% and 105% and 91.7% | 101% and 88.7% and 99.2% | 87.6% and 91.7% and 98.8% | 104% and 95.4% and 100% | 98.1% and 85.9% and 89.5% | 84.6% and 77.5% and 71.8% | – | – | – | –
14 | – | – | > 10000 nM | Cc1cnc(CNC(=O)c2c(=O)c3ccc(N4CCCN(C)CC4)nc3n3c2sc2ccccc23)cn1 | 94.3% [middle of 12 runs] | 85.4% [middle of 12 runs] | 76% [middle of 12 runs] | 70.7% [middle of 11 runs] | 65% [middle of 12 runs] | 62.7% [middle of 12 runs] | – | – | – | –
15 | > 316 nM | – | – | Cn1ncnc1[C@H]1c2n[nH]c(=O)c3cc(F)cc(c23)N[C@@H]1c1ccc(F)cc1 | 86.3% and 102% and 97.5% | – | 94.1% and 80.5% and 73.1% | – | – | – | 108% and 102% and 105% | 94.8% and 103% and 86.1% | 95% and 95.7% and 88.2% | 88.8% and 91.6% and 81.5%
16 | > 10000 nM | – | – | O=C(c1cc(Cc2n[nH]c(=O)c3ccccc23)ccc1F)N1CCN(C(=O)C2CC2)CC1 | 96.1% and 101% and 87.5% | 94.4% and 97.5% and 96.8% | 94.5% and 105% and 103% | 103% and 101% and 96.6% | 100% and 97.8% and 95.5% | 89.8% and 88.3% and 89.4% | – | – | – | –
